Source: US8962313B2, “Method for the simultaneous induction of CTL and γδT cell” (Medinet Co., Ltd., priority 2008, dated 2015)

What was measured:
Format in all cases: cell-based, human
[1] = tested on: CD56 on γδT cells; test: Surface antigen (CD3, Vγ9-TCR, CD56) expression ratio of γδT cells in cultured peripheral blood mononuclear cells, FACS; settings: Day 13 of culture; 5 μM zoledronic acid, 1,000 U/mL IL-2; Disease Antigen (+) = plus 2 μg/ml Mart-1 (A27L)
Protocol: Whether the addition of a disease antigen affects the expression ratio of CD56 on γδT Cells or not was examined by the following procedures. CD56 is an isoform of a neural cell adhesion molecule (N-CAM) and an adhesion factor known as a marker for NK cells. It is one of the markers providing indicators of the cytotoxic activity of γδT cells.
1) Peripheral blood (8 ml) was collected from a healthy donor and peripheral blood mononuclear cells were separated therefrom using a density gradient solution for blood cell separation.
(§1) 2) The resultant peripheral blood mononuclear cells were suspended in AIM-V.
(§2) 3) These peripheral blood mononuclear cells (1.8×10^6/25 mL) were seeded in a 12-well plate (SUMILON). Thereto was added 1,000 U/mL IL-2, to which 5 μM zoledronic acid (ZOMETA) and 2 μg/ml Mart-1 (A27L) as a peptide were further added, followed by starting culture under conditions of 37° C. and 5% CO2 concentration.
(§3) 4) In addition, AB serum was added in an amount of 10% after starting the culture.
5) AIM-V containing 1,000 U/ml IL-2 and AB serum were added depending on the proliferation of cells, which were then cultured for up to 14 days.
6) In the cell population obtained after culture for up to 14 days as described above, the percentage of cells expressing TCRVγ9 or the percentage of cells expressing CD-56 were measured using an anti-TCRVγ9 antibody (Beckman Coulter), an anti-CD56 antibody (Beckman Coulter) and an anti-CD3 antibody (Beckman Coulter) with FACS (Epics XL-MCL ADC, Beckman Coulter).

[2] = tested on: disease antigen specific CD8-positive T cells in peripheral blood mononuclear cells; test: Induction of disease antigen specific CD8-positive T cells (CTLs) in cultured peripheral blood mononuclear cells, FACS with Mart-1 tetramer; settings: 5 μM zoledronic acid, 1,000 U/mL IL-2, Disease Antigen (+) = plus 2 μg/ml Mart-1 (A27L)
Protocol: (§4) 1) Peripheral blood (42 ml) was collected from a healthy donor and peripheral blood mononuclear cells were separated therefrom using a density gradient solution for blood cell separation.
as §1
as §2, with “(8×10^6/4” for “(1.8×10^6/25”, “6-well” for “12-well”, “(ZOMETA (trade name))” for “(ZOMETA)”, “(A27L, sequence: […])” for “(A27L)”
as §3
(§5) 5) AIM-V containing 1,000 U/ml IL-2 and AB serum were added depending on the proliferation of cells, which were then cultured for 14 days.
(§6) 6) In the cell population obtained after culture for 7 days or 14 days as described above, the percentage of disease antigen specific CD8-positive T cells and the percentage of cells expressing TCRVγ9 were measured using an anti-CD8 antibody (BD Pharmingen), T-Select HLA-A*0201 Mart-1 Tetramer […] (MBL), an anti-TCRVγ9 antibody (Beckman Coulter) and an anti-CD3 antibody (Beckman Coulter) with a fluorescence-activated cell sorter (hereinafter referred to as FACS; Epics XL-MCL ADC, Beckman Coulter).

[3] = tested on: γδT cells in peripheral blood mononuclear cells; test: Induction of γδT cells (TCRVγ9-expressing cells) in cultured peripheral blood mononuclear cells, FACS; settings: 5 μM zoledronic acid, 1,000 U/mL IL-2, Disease Antigen (+) = plus 2 μg/ml Mart-1 (A27L)
Protocol: as §4, §1
as §2, with “(8×10^6/4” for “(1.8×10^6/25”, “6-well” for “12-well”, “(ZOMETA (trade name))” for “(ZOMETA)”, “(A27L, sequence: […])” for “(A27L)”
as §3, §5, §6

## O=P(O)(O)C(O)(Cn1ccnc1)P(=O)(O)O [zoledronic acid]
[1]
  Surface Antigen Expression Ratio (%): CD3, Gate Area Live Cells: 98.5%
  Surface Antigen Expression Ratio (%): CD56, Gate Area CD3: 53.1%
  Surface Antigen Expression Ratio (%): CD56, Gate Area Live Cells: 54.4%
  Surface Antigen Expression Ratio (%): CD56, Gate Area Vγ9: 53.1%
  Surface Antigen Expression Ratio (%): Vγ9-TCR, Gate Area Live Cells: 97.0%
[2]; Donor A, 7 days of culture
  Expansion Fold (times) of Disease Antigen Specific CD8-Positive T Cells Contained in Mononuclear Cells: 0.00 times
  Percentage (%) of Disease Antigen Specific CD8-Positive T Cells Contained in Mononuclear Cells: 0.00%
[2]; Donor A, 14 days of culture
  Expansion Fold (times) of Disease Antigen Specific CD8-Positive T Cells Contained in Mononuclear Cells: 0.00 times
  Percentage (%) of Disease Antigen Specific CD8-Positive T Cells Contained in Mononuclear Cells: 0.00%
[2]; Donor B, 7 days of culture
  Expansion Fold (times) of Disease Antigen Specific CD8-Positive T Cells Contained in Mononuclear Cells: 1.79 times
  Percentage (%) of Disease Antigen Specific CD8-Positive T Cells Contained in Mononuclear Cells: 0.01%
[2]; Donor B, 14 days of culture
  Expansion Fold (times) of Disease Antigen Specific CD8-Positive T Cells Contained in Mononuclear Cells: 0.00 times
  Percentage (%) of Disease Antigen Specific CD8-Positive T Cells Contained in Mononuclear Cells: 0.00%
[2]; Donor C, 7 days of culture
  Expansion Fold (times) of Disease Antigen Specific CD8-Positive T Cells Contained in Mononuclear Cells: 0.57 times
  Percentage (%) of Disease Antigen Specific CD8-Positive T Cells Contained in Mononuclear Cells: 0.02%
[2]; Donor C, 14 days of culture
  Expansion Fold (times) of Disease Antigen Specific CD8-Positive T Cells Contained in Mononuclear Cells: 0.00 times
  Percentage (%) of Disease Antigen Specific CD8-Positive T Cells Contained in Mononuclear Cells: 0.00%
[3]; Donor A, 7 days of culture
  Expansion Fold (times) of γδT Cells Contained in Mononuclear Cells: 50.40 times
  Percentage (%) of γδT Cells Contained in Mononuclear Cells: 43.7%
[3]; Donor A, 14 days of culture
  Expansion Fold (times) of γδT Cells Contained in Mononuclear Cells: 4027.31 times
  Percentage (%) of γδT Cells Contained in Mononuclear Cells: 80.9%
[3]; Donor B, 7 days of culture
  Expansion Fold (times) of γδT Cells Contained in Mononuclear Cells: 31.31 times
  Percentage (%) of γδT Cells Contained in Mononuclear Cells: 68.2%
[3]; Donor B, 14 days of culture
  Expansion Fold (times) of γδT Cells Contained in Mononuclear Cells: 1328.85 times
  Percentage (%) of γδT Cells Contained in Mononuclear Cells: 99.0%
[3]; Donor C, 7 days of culture
  Expansion Fold (times) of γδT Cells Contained in Mononuclear Cells: 4.97 times
  Percentage (%) of γδT Cells Contained in Mononuclear Cells: 28.6%
[3]; Donor C, 14 days of culture
  Expansion Fold (times) of γδT Cells Contained in Mononuclear Cells: 1244.02 times
  Percentage (%) of γδT Cells Contained in Mononuclear Cells: 89.2%
